Results as given in US9505767B2, “Pyrazolo[1,5-A]pyrimidin-7(4H)-onehistone demethylase inhibitors” (Genentech, Inc., priority 2013, dated 2016).

biological target: T1, KDM5A (Homo sapiens, UniProt P29375); assay: KDM5A Demethylase Assay (TR-FRET Assay-B); format: biochemical; settings: full length recombinant Flag tagged KDM5A, 2 nM, TrisCl pH 7.4, 3.0 μM α-ketoglutarate, read-out: B KDM5A HTRF (IC50)
T1 construct: Full length recombinant Flag tagged KDM5A protein was purified from Sf9 insect cells; Flag; made in house; host or cells: Sf9 insect cells
T1 sequence (P29375 whole entry): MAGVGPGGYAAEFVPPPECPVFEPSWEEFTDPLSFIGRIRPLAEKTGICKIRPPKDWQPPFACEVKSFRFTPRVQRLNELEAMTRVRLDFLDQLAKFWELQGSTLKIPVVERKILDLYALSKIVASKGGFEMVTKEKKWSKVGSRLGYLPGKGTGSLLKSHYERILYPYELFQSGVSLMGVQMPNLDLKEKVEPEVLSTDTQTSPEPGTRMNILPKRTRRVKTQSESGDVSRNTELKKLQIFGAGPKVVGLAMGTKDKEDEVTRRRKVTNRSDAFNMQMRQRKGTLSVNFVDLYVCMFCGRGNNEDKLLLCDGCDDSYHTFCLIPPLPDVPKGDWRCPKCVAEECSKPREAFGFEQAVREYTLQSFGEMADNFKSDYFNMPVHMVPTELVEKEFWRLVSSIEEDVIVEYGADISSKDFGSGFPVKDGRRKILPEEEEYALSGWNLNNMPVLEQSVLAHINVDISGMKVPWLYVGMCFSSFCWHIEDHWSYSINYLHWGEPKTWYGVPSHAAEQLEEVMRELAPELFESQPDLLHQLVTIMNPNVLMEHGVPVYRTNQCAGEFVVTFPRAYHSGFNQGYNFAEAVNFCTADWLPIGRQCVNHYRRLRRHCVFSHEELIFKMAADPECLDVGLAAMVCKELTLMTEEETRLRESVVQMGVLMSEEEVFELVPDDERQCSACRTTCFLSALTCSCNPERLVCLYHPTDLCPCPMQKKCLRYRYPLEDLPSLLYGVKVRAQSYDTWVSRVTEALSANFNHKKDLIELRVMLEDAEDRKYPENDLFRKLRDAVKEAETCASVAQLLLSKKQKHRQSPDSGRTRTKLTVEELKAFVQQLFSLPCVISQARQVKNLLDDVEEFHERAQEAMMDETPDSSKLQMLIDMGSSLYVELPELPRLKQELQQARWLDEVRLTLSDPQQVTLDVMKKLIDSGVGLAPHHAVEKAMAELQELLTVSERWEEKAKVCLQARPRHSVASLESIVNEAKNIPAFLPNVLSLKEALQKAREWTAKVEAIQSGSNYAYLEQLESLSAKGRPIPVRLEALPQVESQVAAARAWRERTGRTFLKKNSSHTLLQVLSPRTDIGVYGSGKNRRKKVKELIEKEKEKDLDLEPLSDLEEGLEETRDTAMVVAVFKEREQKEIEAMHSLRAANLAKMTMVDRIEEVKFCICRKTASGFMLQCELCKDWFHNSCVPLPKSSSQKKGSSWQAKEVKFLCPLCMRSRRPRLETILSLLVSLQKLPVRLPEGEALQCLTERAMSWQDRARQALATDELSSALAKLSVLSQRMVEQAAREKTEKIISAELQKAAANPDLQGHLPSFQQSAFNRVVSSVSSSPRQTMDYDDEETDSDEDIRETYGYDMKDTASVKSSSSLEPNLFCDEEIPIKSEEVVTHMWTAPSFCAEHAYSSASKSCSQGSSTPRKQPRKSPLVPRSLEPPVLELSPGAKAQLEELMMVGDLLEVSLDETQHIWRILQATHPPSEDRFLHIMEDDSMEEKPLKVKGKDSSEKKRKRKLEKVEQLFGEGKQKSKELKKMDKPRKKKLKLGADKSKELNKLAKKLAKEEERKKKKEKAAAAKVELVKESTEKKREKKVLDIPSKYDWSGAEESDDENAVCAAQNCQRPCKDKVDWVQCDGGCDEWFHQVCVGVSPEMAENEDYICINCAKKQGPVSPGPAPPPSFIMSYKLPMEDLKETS
Description: Full length recombinant Flag tagged KDM5A protein was purified from Sf9 insect cells. The demethylation reaction buffer contained 50 mM TrisCl pH 7.4, 0.01% Triton X-100, 0.025 mg/mL BSA, 1 mM ascorbate, 2 mM TCEP, 3.0 μM α-ketoglutarate, and 50 μM Fe2(NH4)2(SO4)2. […] After a one hour incubation assays were read on a Perkin-Elmer Envision equipped with a laser source and appropriate filters.

Point of comparison: `CCc1c(C)[nH]c2c(-c3cnn(-c4cc(CO)ccn4)c3)cnn2c1=O` [Example 11, 6-ethyl-3-(1-(4-(hydroxymethyl)pyridin-2-yl)-1H-pyrazol-4-yl)-5-methylpyrazolo[1,5-a]pyrimidin-7(4H)-one], IC50 2.3 nM. Against it:
- CCc1c(C)[nH]c2c(-c3cnn(-c4nccc(N5CCCC5)n4)c3)cnn2c1=O [Example 6, 6-ethyl-5-methyl-3-(1-(4-(pyrrolidin-1-yl)pyrimidin-2-yl)-1H-pyrazol-4-yl)pyrazolo[1,5-a]pyrimidin-7(4H)-one] — 23-fold higher, 52.9 nM
- Cc1ccnc(-n2cc(-c3cnn4c(=O)c(C(C)C)c(C)[nH]c34)cn2)n1 [Example 23, 6-isopropyl-5-methyl-3-(1-(4-methylpyrimidin-2-yl)-1H-pyrazol-4-yl)pyrazolo[1,5-a]pyrimidin-7(4H)-one] — 24-fold higher, 54.3 nM
- Cc1[nH]c2c(-c3cnn(-c4ccccn4)c3)cnn2c(=O)c1F [Example 62, 6-fluoro-5-methyl-3-[1-(2-pyridyl)pyrazol-4-yl]-4H-pyrazolo[1,5-a]pyrimidin-7-one] — 92-fold higher, 212 nM
- CCc1c(C)[nH]c2c(-c3cnn(-c4ccncn4)c3)cnn2c1=O [Example 3, 6-ethyl-5-methyl-3-(1-(pyrimidin-4-yl)-1H-pyrazol-4-yl)pyrazolo[1,5-a]pyrimidin-7(4H)-one] — 69-fold higher, 158 nM
- CCc1c(C)[nH]c2c(-c3cnn(-c4cc(OCCN)ccn4)c3)cnn2c1=O [Example 18, 3-(1-(4-(2-aminoethoxy)pyridin-2-yl)-1H-pyrazol-4-yl)-6-ethyl-5-methylpyrazolo[1,5-a]pyrimidin-7(4H)-one] — 4.3-fold higher, 9.8 nM
- CCc1c(CO)[nH]c2c(-c3cnn(-c4ccccn4)c3)cnn2c1=O [Example 41, 6-ethyl-5-(hydroxymethyl)-3-(1-(pyridin-2-yl)-1H-pyrazol-4-yl)pyrazolo[1,5-a]pyrimidin-7(4H)-one] — 1.8-fold higher, 4.1 nM
- Cc1c(C2CC2)[nH]c2c(-c3cnn(-c4ccccn4)c3)cnn2c1=O [Example 39, 5-cyclopropyl-6-methyl-3-(1-(pyridin-2-yl)-1H-pyrazol-4-yl)pyrazolo[1,5-a]pyrimidin-7(4H)-one] — 270-fold higher, 624 nM
- Cc1[nH]c2c(-c3cnn(-c4ccccn4)c3)cnn2c(=O)c1C [Example 61, 5,6-dimethyl-3-[1-(2-pyridyl)pyrazol-4-yl]-4H-pyrazolo[1,5-a]pyrimidin-7-one] — 29-fold higher, 66.1 nM
- CCc1c(C)[nH]c2c(-c3cnn(C(=O)OC)c3)cnn2c1=O [Example 36, Methyl 4-(6-ethyl-5-methyl-7-oxo-4,7-dihydropyrazolo[1,5-a]pyrimidin-3-yl)-1H-pyrazole-1-carboxylate] — 430-fold higher, 1000 nM
- CCc1c(C)[nH]c2c(-c3cnn(-c4nccc(N(C)C)n4)c3)cnn2c1=O [Example 4, 3-(1-(4-(dimethylamino)pyrimidin-2-yl)-1H-pyrazol-4-yl)-6-ethyl-5-methylpyrazolo[1,5-a]pyrimidin-7(4H)-one] — 20-fold higher, 47 nM
- CCc1c(C)[nH]c2c(-c3cnn(-c4ccc(CO)cn4)c3)cnn2c1=O [Example 12, 6-ethyl-3-(1-(5-(hydroxymethyl)pyridin-2-yl)-1H-pyrazol-4-yl)-5-methylpyrazolo[1,5-a]pyrimidin-7(4H)-one] — 14-fold higher, 31.3 nM
- CCc1c(C)[nH]c2c(-c3cnn(-c4cc(C5CC5)ccn4)c3)cnn2c1=O [Example 9, 3-(1-(4-cyclopropylpyridin-2-yl)-1H-pyrazol-4-yl)-6-ethyl-5-methylpyrazolo[1,5-a]pyrimidin-7(4H)-one] — 7.2-fold higher, 16.6 nM
- Cc1ccc(-n2cc(-c3cnn4c(=O)c(C(C)C)c(C)[nH]c34)cn2)nc1 [Example 21, 6-isopropyl-5-methyl-3-(1-(5-methylpyridin-2-yl)-1H-pyrazol-4-yl)pyrazolo[1,5-a]pyrimidin-7(4H)-one] — 4-fold higher, 9.1 nM
- Cc1cc(=O)n2ncc(-n3cnc(-c4ccccn4)c3)c2[nH]1 [Example 49, 5-Methyl-3-(4-(pyridin-2-yl)-1H-imidazol-1-yl)pyrazolo[1,5-a]pyrimidin-7(4H)-one] — 19-fold higher, 43.7 nM
- Cc1c(C(C)C)[nH]c2c(-c3cnn(-c4ccccn4)c3)cnn2c1=O [Example 38, 5-isopropyl-6-methyl-3-(1-(pyridin-2-yl)-1H-pyrazol-4-yl)pyrazolo[1,5-a]pyrimidin-7(4H)-one] — 430-fold higher, 1000 nM
- Cc1[nH]c2c(-c3cnn(-c4ccccn4)c3)cnn2c(=O)c1C(C)C [Example 20, 6-isopropyl-5-methyl-3-(1-(pyridin-2-yl)-1H-pyrazol-4-yl)pyrazolo[1,5-a]pyrimidin-7(4H)-one] — 3.6-fold higher, 8.3 nM
- CCc1c(C)[nH]c2c(-c3cnn(-c4nccc(OC)n4)c3)cnn2c1=O [Example 7, 6-ethyl-3-(1-(4-methoxypyrimidin-2-yl)-1H-pyrazol-4-yl)-5-methylpyrazolo[1,5-a]pyrimidin-7(4H)-one] — 3.7-fold higher, 8.6 nM
- Cc1[nH]c2c(-c3cnn(-c4ccc(CO)cn4)c3)cnn2c(=O)c1C1CC1 [Example 32, 6-cyclopropyl-3-(1-(5-(hydroxymethyl)pyridin-2-yl)-1H-pyrazol-4-yl)-5-methylpyrazolo[1,5-a]pyrimidin-7(6H)-one] — 3.4-fold higher, 7.9 nM
- Cc1cnc(-n2cc(-c3cnn4c(=O)c(C(C)C)c(C)[nH]c34)cn2)nc1 [Example 24, 6-isopropyl-5-methyl-3-(1-(5-methylpyrimidin-2-yl)-1H-pyrazol-4-yl)pyrazolo[1,5-a]pyrimidin-7(4H)-one] — 7.2-fold higher, 16.6 nM
- Cc1ccnc(-n2cc(-c3cnn4c(=O)c(C(C)C)c(C)[nH]c34)cn2)c1 [Example 22, 6-isopropyl-5-methyl-3-(1-(4-methylpyridin-2-yl)-1H-pyrazol-4-yl)pyrazolo[1,5-a]pyrimidin-7(4H)-one] — 10-fold higher, 23.6 nM
- CCc1c(C)[nH]c2c(-c3cnn(C(=O)C(C)(C)C)c3)cnn2c1=O [Example 35, 6-ethyl-5-methyl-3-(1-pivaloyl-1H-pyrazol-4-yl)pyrazolo[1,5-a]pyrimidin-7(4H)-one] — 240-fold higher, 543 nM
- CCc1[nH]c2c(-c3cnn(-c4ccccn4)c3)cnn2c(=O)c1CC [Example 63, 5,6-diethyl-3-[1-(2-pyridyl)pyrazol-4-yl]-4H-pyrazolo[1,5-a]pyrimidin-7-one] — 73-fold higher, 169 nM
- CCc1c(C)[nH]c2c(-c3cnn(-c4nccs4)c3)cnn2c1=O [Example 8, 6-ethyl-5-methyl-3-(1-(thiazol-2-yl)-1H-pyrazol-4-yl)pyrazolo[1,5-a]pyrimidin-7(4H)-one] — 59-fold higher, 136 nM
- CCc1c(C)[nH]c2c(-c3cnn(-c4ccc(C)cn4)c3)cnn2c1=O [Example 65, 6-ethyl-5-methyl-3-[1-(5-methyl-2-pyridyl)pyrazol-4-yl]-4H-pyrazolo[1,5-a]pyrimidin-7-one] — 2.2-fold higher, 5.1 nM
- CCc1[nH]c2c(-c3cnn(-c4ccccn4)c3)cnn2c(=O)c1C [Example 37, 5-ethyl-6-methyl-3-(1-(pyridin-2-yl)-1H-pyrazol-4-yl)pyrazolo[1,5-a]pyrimidin-7(4H)-one] — 150-fold higher, 335 nM
- COc1c(C)[nH]c2c(-c3cnn(-c4ccccn4)c3)cnn2c1=O [Example 40, 6-methoxy-5-methyl-3-(1-(pyridin-2-yl)-1H-pyrazol-4-yl)pyrazolo[1,5-a]pyrimidin-7(4H)-one] — 44-fold higher, 101 nM
- Cc1[nH]c2c(-c3cnn(-c4ccc(CO)cn4)c3)cnn2c(=O)c1C(C)C [Example 25, 3-(1-(5-(hydroxymethyl)pyridin-2-yl)-1H-pyrazol-4-yl)-6-isopropyl-5-methylpyrazolo[1,5-a]pyrimidin-7(4H)-one] — 2.9-fold higher, 6.6 nM
- CCc1c(C)[nH]c2c(-c3cnn(-c4ncc(C)cn4)c3)cnn2c1=O [Example 2, 6-ethyl-5-methyl-3-(1-(5-methylpyrimidin-2-yl)-1H-pyrazol-4-yl)pyrazolo[1,5-a]pyrimidin-7(4H)-one] — 7-fold higher, 16.1 nM
- CCc1c(C)[nH]c2c(-c3cnn(-c4ncccn4)c3)cnn2c1=O [Example 14, 6-ethyl-5-methyl-3-(1-(pyrimidin-2-yl)-1H-pyrazol-4-yl)pyrazolo[1,5-a]pyrimidin-7(4H)-one] — 7.2-fold higher, 16.5 nM

biological target: T1, KDM5A; assay: KDM5A Demethylase Assay (MassSpec Assay-A); format: biochemical; settings: full length recombinant Flag tagged KDM5A, 20 nM; MassSpec readout; biotinylated H3K9me1 peptide 4.0 μM; read-out: A KDM5A MS (IC50)
Description: Full length recombinant Flag tagged KDM5A protein was purified from […] insect cells. The demethylation reaction buffer contained 50 mM TrisCl pH 7.4, 0.01% Triton X-100, 0.025 mg/mL BSA, 1 mM ascorbate (Cat# A4034, Sigma Aldrich), 2 mM TCEP (Cat# D9779, Sigma Aldrich), 2.0 μM α-ketoglutarate (# K2010, Sigma Aldrich) and 50 μM Fe2(NH4)2(SO4)2 (Cat# F1543, Sigma Aldrich). In a 25 μL demethylation reaction system, 20 nM recombinant KDM5A and was incubated with compounds for 10 minutes in the above buffer, and then […] (# K2010, Sigma Aldrich), 4.0 μM biotinylated H3K9me1 peptide (1-21 aa), and Fe2(NH4)2(SO4)2 were added to initiate the reaction. (All reagent concentrations are final reagent concentrations.) Reactions were incubated for 30 minutes at room temperature, and then quenched by addition of an equal volume of 1% formic acid. After termination, plates were sealed and frozen at −80° C. for analysis.

Point of comparison: `CCc1c(C)[nH]c2c(-n3cnc(-c4ncccn4)c3)cnn2c1=O` [Example 54, 6-ethyl-5-methyl-3-(4-(pyrimidin-2-yl)-1H-imidazol-1-yl)pyrazolo[1,5-a]pyrimidin-7(4H)-one], IC50 538 nM. Against it:
- CCc1c(C)[nH]c2c(-n3cnc(C(=O)N(C)C)c3)cnn2c1=O [Example 75, 1-(6-ethyl-5-methyl-7-oxo-4,7-dihydropyrazolo[1,5-a]pyrimidin-3-yl)-N,N-dimethyl-1H-imidazole-4-carboxamide] — 3-fold lower, 178 nM
- CCc1c(C)[nH]c2c(-c3cnn(-c4cc5ccccc5cn4)c3)cnn2c1=O [Example 68, 6-ethyl-3-(1-(isoquinolin-3-yl)-1H-pyrazol-4-yl)-5-methylpyrazolo[1,5-a]pyrimidin-7(4H)-one] — 15-fold lower, 36.9 nM
- Cc1[nH]c2c(-n3cnc(-c4ccccn4)c3)cnn2c(=O)c1C [Example 73, 5,6-dimethyl-3-(4-(pyridin-2-yl)-1H-imidazol-1-yl)pyrazolo[1,5-a]pyrimidin-7(4H)-one] — 10-fold lower, 53.7 nM
- CCc1c(C)[nH]c2c(-c3nc(-c4ccccn4)no3)cnn2c1=O [Example 59, 6-Ethyl-5-methyl-3-(3-(pyridin-2-yl)-1,2,4-oxadiazol-5-yl)pyrazolo[1,5-a]pyrimidin-7(4H)-one] — within 1.5-fold, 518 nM
